Values belong to the molecule of their own block, whether it stands above or below them.
Experiments:
human pancreatic cancers = assay: Inhibition of human pancreatic cancers; conditions: in particular cancers rich in glucocorticoid receptors
glucocorticoid activity = assay: Glucocorticoid activity (general statements)
[1] = system: corneal neovascularization; assay: Inhibition of corneal neovascularization in cauterized rat corneas, topical application four times per day for four days; assay type: in vivo; conditions: for Neovascularization (percent of the corneal area occupied by blood vessels): mean ± S.D.; for Percent Inhibition of neovascularization: versus vehicle
Experimental: (§1) The ability of etianic acids to inhibit angiogenesis was evaluated in vivo in rats. Each animal had its corneas cauterized with silver nitrate/potassium nitrate. The cauterization causes the normally avascular cornea to undergo neovascularization (anglogenesis). This animal model, refined by Proia et al., Lab. Invest. 58: 473-479 (1988) and now a well-established assay, quantifies corneal neovascularization by computerized image analysis. […] Ophthalmol. Vis. Science 30: 1588-1593 (1989), and can provide a more definitive evaluation of angiostatic activity than models using the chorioallantoic membrane in the chick egg or the rabbit eye model. See Proia et al., Exp. Eye Res. (in press--to be published in Vol. 57 in 1993).
(§2) Female rats were obtained from Zivic-Miller Laboratories, Zelienople, Pa. There were 6-8 rats included in each treatment group. Neovascularization was induced by cauterizing both corneas of each anesthetized rat; this was performed by applying the tip of a silver nitrate/potassium nitrate to the cornea for 5-7.5 seconds.
The corneal tissues were treated with steroid formulations.
Steroids were formulated in vehicle containing 10 percent Tween 20 (polyoxyethylene sorbitan monolaurate) dissolved in 0.9 percent saline with percent (by volume) 0.2M tris (hydroxymethyl)aminomethane, pH 7.4. […] All steroids were tested at a concentration of 1 percent; additionally, some formulations were also tested at 0.01 percent, 0.1 percent, and 2.5 percent. Three 10 μl drops of each concentration of steroid were applied topically to each cauterized cornea four times per day (8:00 a.m., noon, 4:00 p.m., and 8:00 p.m.).
(§3) After four days of treatment, the animals were euthanized by rapid asphyxiation in a carbon dioxide chamber. The vasculature was perfused with a mixture of 10 percent india ink/11 percent gelatin/lactated Ringer's solution. Corneal tissue was dissected and prepared as flat mounts. During dissection, the corneas were examined with a dissecting microscope, and the degree of neovascularization was graded numerically from 1+ to 4+. After dehydration with alcohols, cleaning with xylene, mounting, and drying, the area of each cornea and the length of blood vessels were determined by computerized image analysis.
Statistical evaluation of inhibition of corneal neovascularization by each concentration of drug was evaluated using Mann Whitney U Tests (one-tailed; P<0.05=significant difference). […] In all cases, however, image analysis was used to quantitatively confirm visual observations.

thymus = assay: Thymus weight of rats treated topically in the corneal angiogenesis study; assay type: in vivo, rat
Experimental: as §1, §2
(§4) Steroids were formulated in vehicle containing 10 percent Tween 20 (polyoxyethylene sorbitan monolaurate) dissolved in 0.9 percent saline with percent (by volume) 0.2M tris (hydroxymethyl)aminomethane, pH 7.4. The steroids dissolved readily when the pH was adjusted to 7.0-8.0 with NaOH or KOH. All steroids were tested at a concentration of 1 percent; additionally, some formulations were also tested at 0.01 percent, 0.1 percent, and 2.5 percent. Three 10 μl drops of each concentration of steroid were applied topically to each cauterized cornea four times per day (8:00 a.m., noon, 4:00 p.m., and 8:00 p.m.).
as §3

[2] = Body weight of rats treated topically in the corneal angiogenesis study; assay type: in vivo, rat; conditions: topical, all concentrations
Experimental: as §1, §2, §4
as §3, with “Corneal tissue was dissected and prepared as flat mounts. During dissection, the corneas were examined with a dissecting microscope, and the degree of neovascularization was graded numerically from 1+ to 4+.” left out

[3] = system: corneal neovascularization; assay: Corneal angiogenesis inhibition, subcutaneous injection once/day; assay type: in vivo, rat
Experimental: as §1, §2, §3
The ability of compounds 2013, 518, and 513 to inhibit corneal angiogenesis when injected subcutaneously once/day to was assessed on rats prepared as described in Example 8. Dexamethasone was used as a positive control.

rat corneas = assay: Histological study of steroid-treated cauterized corneal tissue; assay type: in vivo; conditions: 1 percent topical QID
Experimental: A histological study was performed in which either vehicle or 1 percent compound 2013 (17β-carboxylic acid derivative of prednisolone) was applied topically (QID) to rat corneas cauterized as described in Example 23. Five rats were included in each experimental group. The rats were killed either one or four days after treatment.
Histological sections were prepared through the cautery site.

[4] = system: Dunning R3327 (PAP) prostatic adenocarcinoma; conditions: in vitro; cited from earlier work
[5] = system: Kirsten murine sarcoma virus transformed human skin fibroblasts; conditions: cited from earlier work
MCF-7 breast cancer = conditions: in vitro; cited from earlier work

Structure (SMILES): C[C@]12C=C(C(=O)O)C(=O)C=C1CC[C@@H]1[C@@H]2[C@@H](O)C[C@@]2(C)[C@H]1CC[C@]2(C)O [2-carboxyl-11β,17β-dihydroxy-17α-methyl-1,4-androstadien-3-one]
Inhibition of human pancreatic cancers (in words) (human pancreatic cancers): inhibits certain human pancreatic cancers, and in particular inhibits those cancers rich in glucocorticoid receptors | Glucocorticoid activity (in words) (glucocorticoid activity): anti-glucocorticoid

Change in thymus weight (in words) (thymus; topical 0.1 percent): no significant effect on thymus weight | Decrease of thymus weight from control (thymus; topical 1 percent): 27% | Thymus weight (thymus; topical 1 percent, four days): 0.207±0.035 gm
Structure (SMILES): C[C@]12C=CC(=O)C=C1CC[C@@H]1[C@@H]2[C@@H](O)C[C@@]2(C)[C@H]1CC[C@]2(O)C(=O)O [Compound 2013, 17β-carboxyl-11β,17α-dihydroxy-3-oxo-1,4-androstadiene]
Neovascularization (percent of the corneal area occupied by blood vessels) ([1]; Experiment A, topical 0.01%): 26.2 ± 6.3% | Percent Inhibition of neovascularization ([1]; Experiment A, topical 0.01%): +21% | Neovascularization (percent of the corneal area occupied by blood vessels) ([1]; Experiment A, topical 0.1%): 13.9 ± 7.3% | Percent Inhibition of neovascularization ([1]; Experiment A, topical 0.1%): 36% | Neovascularization (percent of the corneal area occupied by blood vessels) ([1]; Experiment A, topical 1.0%): 9.8 ± 2.0% | Percent Inhibition of neovascularization ([1]; Experiment A, topical 1.0%): 55% | Neovascularization (percent of the corneal area occupied by blood vessels) ([1]; Experiment B, topical 0.01%): 18.3 ± 4.0% | Percent Inhibition of neovascularization ([1]; Experiment B, topical 0.01%): 22% | Neovascularization (percent of the corneal area occupied by blood vessels) ([1]; Experiment B, topical 0.1%): 14.6 ± 6.8% | Percent Inhibition of neovascularization ([1]; Experiment B, topical 0.1%): 38% | Neovascularization (percent of the corneal area occupied by blood vessels) ([1]; Experiment B, topical 1.0%): 16.0 ± 3.6% | Percent Inhibition of neovascularization ([1]; Experiment B, topical 1.0%): 32% | Inhibition of corneal vascularization (significance, in words) ([1]; applied topically): did cause significant inhibition of corneal vascularization | Effect on body weight (in words) [2]: Body weight was unaffected by treatment with any concentration | Neovasc. ([3]; 10 mg/kg/day subcutaneous): 21.5 ± 6.3% | Neovasc. ([3]; 25 mg/kg/day subcutaneous): 17.1 ± 3.0% | Degree of leukocytic infiltrate versus vehicle (in words) (rat corneas; 24 or 96 hours post-cautery): no difference in the degree of leukocytic infiltrate | Corneal reepithelialization and neovascularization (in words) (rat corneas; 24 hours after cautery): Neither corneal reepithelialization nor neovascularization were observed | Corneal reepithelialization (in words) (rat corneas; 96 hours post-cautery): all corneas were reepithelialized | Neovascularization (histological) (rat corneas; 96 hours post-cautery): 0.6±0.6 | Neovascularization versus vehicle (in words) (rat corneas; 96 hours post-cautery): marked reduction in neovascularization | Growth inhibition of Dunning R3327 (PAP) (in words) [4]: inhibits growth of the Dunning R3327 (PAP) prostatic adenocarcinoma | Neodifferentiation into adipose cells (in words) [5]: promotes neodifferentiation

Structure (SMILES): C[C@]12C=CC(=O)C=C1CC[C@@H]1[C@@H]2[C@@H](O)C[C@@]2(C)[C@H]1CC[C@]2(O)C(=O)NCc1ccccc1 [benzylamide derivative, prednienic acid benzylamide]
Inhibition of MCF-7 breast cancer (in words) (MCF-7 breast cancer): inhibits MCF-7 breast cancer
